The source of these data is the supplement of paper PMC11368000.

One experiment relates to 11235 (donor line of iPSC-derived cardiomyocytes). Put plainly: POD (EC10) for decrease in total cell number (cytotoxicity) vs vehicle; higher = less potent (higher point of departure). As to conditions: exposure time: 90 min. How it is done:
(§1)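 Human iPSC-derived cardiomyocytes from 16 donors were exposed for 90 min at 37 °C to each PFAS at 0.1, 1, 10 and 100 µM in 0.5% DMSO, 384-well plates. Kinetic Ca2+ flux (FLIPR) and Hoechst nuclei counts were normalised to vehicle wells and fitted with a hierarchical Bayesian Hill model to give donor-specific PODs: EC05 for beat-rate increase or decrease and for decay-to-rise ratio increase (QT proxy), EC95 for peak-frequency loss (asystole), EC10 for total cell number loss. 0.03 µM is the lower bound.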
In turn, `CN(CCO)S(=O)(=O)C(F)(F)C(F)(F)C(F)(F)C(F)(F)C(F)(F)C(F)(F)C(F)(F)C(F)(F)F` [N-Methyl-N-(2-hydroxyethyl)perfluorooctanesulfonamide] returned a POD vs vehicle of over 100 µM.

Take `NC(=O)C(F)(F)C(F)(F)C(F)(F)C(F)(F)C(N)=O` [Octafluoroadipamide]: the POD vs vehicle is over 100 µM.

Consider `O=C(O)C(F)(F)C(F)(F)C(F)(F)OC(F)(F)F` [Perfluoro(4-methoxybutanoic)_acid], for which the POD vs vehicle is over 100 µM.

Consider `O=C(O)C(F)(F)C(F)(F)OC(F)(F)F` [Perfluoro-3-methoxypropanoic_acid], for which the POD vs vehicle was over 100 µM.

In turn, `O=C(O)C(F)(F)C(F)(F)C(F)(F)F` [Perfluorobutanoic_acid] yielded a POD vs vehicle of over 100 µM.

Molecule `O=C(O)C(F)(F)C(F)(F)C(F)(F)C(F)(F)C(F)(F)C(F)(F)C(F)(F)C(F)(F)C(F)(F)F` [Perfluorodecanoic_acid] returned a POD vs vehicle of over 100 µM.

In turn, `NS(=O)(=O)C(F)(F)C(F)(F)C(F)(F)C(F)(F)C(F)(F)C(F)(F)F` [Perfluorohexanesulfonamide] showed a POD vs vehicle of over 100 µM.

On to `O=S(=O)(O)C(F)(F)C(F)(F)C(F)(F)C(F)(F)C(F)(F)C(F)(F)F` [Perfluorohexanesulfonic_acid], for which the POD vs vehicle was over 100 µM.

With `O=C(O)C(F)(F)C(F)(F)C(F)(F)C(F)(F)C(F)(F)F` [Perfluorohexanoic_acid], the POD vs vehicle is over 100 µM.

A further experiment concerns 1309 (donor line of iPSC-derived cardiomyocytes). Described as above. As to conditions: exposure time: 90 min. How it is done: as §1
On to `O=C(O)CCC(F)(F)C(F)(F)C(F)(F)C(F)(F)C(F)(F)C(F)(F)C(F)(F)F` [3-Perfluoroheptylpropanoic_acid], for which the POD vs vehicle is over 100 µM.

On to `OCCC(F)(F)C(F)(F)C(F)(F)C(F)(F)C(F)(F)C(F)(F)F` [6:2 Fluorotelomer alcohol], for which the POD vs vehicle is over 100 µM.

As to `O=S(=O)(O)CCC(F)(F)C(F)(F)C(F)(F)C(F)(F)C(F)(F)C(F)(F)F` [6:2 Fluorotelomer sulfonic acid], the POD vs vehicle is over 100 µM.

For `OCCC(F)(F)C(F)(F)C(F)(F)C(F)(F)C(F)(F)C(F)(F)C(F)(F)C(F)(F)F` [8:2 Fluorotelomer alcohol], the POD vs vehicle was over 100 µM.

Molecule `O=S(=O)(O)CCC(F)(F)C(F)(F)C(F)(F)C(F)(F)C(F)(F)C(F)(F)C(F)(F)C(F)(F)F` [8:2 Fluorotelomer sulfonic acid] yielded a POD vs vehicle of over 100 µM.

For the molecule `O=C(O)C(F)(F)C(F)(F)C(F)(F)C(F)(F)C(F)(F)C(F)(F)C(F)(F)C(F)(F)Cl` [9-Chloro-perfluorononanoic_acid], the POD vs vehicle was over 100 µM.

Consider `O=P(O)(O)CCC(F)(F)C(F)(F)C(F)(F)C(F)(F)C(F)(F)C(F)(F)C(F)(F)C(F)(F)F` [((Perfluorooctyl)ethyl)phosphonic_acid], for which the POD vs vehicle is over 100 µM.

As to `OCC(F)(F)C(F)(F)C(F)(F)C(F)(F)C(F)(F)C(F)F` [Dodecafluoroheptanol], the POD vs vehicle is over 100 µM.

On to `COC(=O)C(F)(F)C(F)(F)OC(F)(C(F)(F)F)C(F)(F)OC(F)=C(F)F` (stereo not given) [Methyl_perfluoro(3-(1-ethenyloxypropan-2-yloxy)propanoate)], for which the POD vs vehicle is over 100 µM.

In turn, `CN(CCO)S(=O)(=O)C(F)(F)C(F)(F)C(F)(F)C(F)(F)C(F)(F)C(F)(F)C(F)(F)C(F)(F)F` [N-Methyl-N-(2-hydroxyethyl)perfluorooctanesulfonamide] displayed a POD vs vehicle of over 100 µM.

With `NC(=O)C(F)(F)C(F)(F)C(F)(F)C(F)(F)C(N)=O` [Octafluoroadipamide], the POD vs vehicle was over 100 µM.

Molecule `O=C(O)C(F)(F)C(F)(F)C(F)(F)OC(F)(F)F` [Perfluoro(4-methoxybutanoic)_acid] displayed a POD vs vehicle of over 100 µM.

`O=C(O)C(F)(F)C(F)(F)OC(F)(F)F` [Perfluoro-3-methoxypropanoic_acid] had a POD vs vehicle of over 100 µM.

As for `O=C(O)C(F)(F)C(F)(F)C(F)(F)F` [Perfluorobutanoic_acid], the POD vs vehicle is over 100 µM.

Molecule `O=C(O)C(F)(F)C(F)(F)C(F)(F)C(F)(F)C(F)(F)C(F)(F)C(F)(F)C(F)(F)C(F)(F)F` [Perfluorodecanoic_acid] yielded a POD vs vehicle of over 100 µM.

Regarding `NS(=O)(=O)C(F)(F)C(F)(F)C(F)(F)C(F)(F)C(F)(F)C(F)(F)F` [Perfluorohexanesulfonamide], the POD vs vehicle worked out at 70.7 µM.

In the case of `O=S(=O)(O)C(F)(F)C(F)(F)C(F)(F)C(F)(F)C(F)(F)C(F)(F)F` [Perfluorohexanesulfonic_acid], the POD vs vehicle is over 100 µM.

Regarding `O=C(O)C(F)(F)C(F)(F)C(F)(F)C(F)(F)C(F)(F)F` [Perfluorohexanoic_acid], the POD vs vehicle was over 100 µM.

The subject of a further experiment is 1368 (donor line of iPSC-derived cardiomyocytes). The experiment is described as above. Conditions: exposure time: 90 min. How it is done: as §1
`O=C(O)CCC(F)(F)C(F)(F)C(F)(F)C(F)(F)C(F)(F)C(F)(F)C(F)(F)F` [3-Perfluoroheptylpropanoic_acid] yielded a POD vs vehicle of over 100 µM.

`OCCC(F)(F)C(F)(F)C(F)(F)C(F)(F)C(F)(F)C(F)(F)F` [6:2 Fluorotelomer alcohol] had a POD vs vehicle of over 100 µM.

`O=S(=O)(O)CCC(F)(F)C(F)(F)C(F)(F)C(F)(F)C(F)(F)C(F)(F)F` [6:2 Fluorotelomer sulfonic acid] yielded a POD vs vehicle of over 100 µM.

As for `OCCC(F)(F)C(F)(F)C(F)(F)C(F)(F)C(F)(F)C(F)(F)C(F)(F)C(F)(F)F` [8:2 Fluorotelomer alcohol], the POD vs vehicle is over 100 µM.

For the molecule `O=S(=O)(O)CCC(F)(F)C(F)(F)C(F)(F)C(F)(F)C(F)(F)C(F)(F)C(F)(F)C(F)(F)F` [8:2 Fluorotelomer sulfonic acid], the POD vs vehicle was over 100 µM.

For the molecule `O=C(O)C(F)(F)C(F)(F)C(F)(F)C(F)(F)C(F)(F)C(F)(F)C(F)(F)C(F)(F)Cl` [9-Chloro-perfluorononanoic_acid], the POD vs vehicle was over 100 µM.

`O=P(O)(O)CCC(F)(F)C(F)(F)C(F)(F)C(F)(F)C(F)(F)C(F)(F)C(F)(F)C(F)(F)F` [((Perfluorooctyl)ethyl)phosphonic_acid] registered a POD vs vehicle of over 100 µM.

`OCC(F)(F)C(F)(F)C(F)(F)C(F)(F)C(F)(F)C(F)F` [Dodecafluoroheptanol]: the POD vs vehicle is over 100 µM.

For `COC(=O)C(F)(F)C(F)(F)OC(F)(C(F)(F)F)C(F)(F)OC(F)=C(F)F` (stereo not given) [Methyl_perfluoro(3-(1-ethenyloxypropan-2-yloxy)propanoate)], the POD vs vehicle was over 100 µM.

`CN(CCO)S(=O)(=O)C(F)(F)C(F)(F)C(F)(F)C(F)(F)C(F)(F)C(F)(F)C(F)(F)C(F)(F)F` [N-Methyl-N-(2-hydroxyethyl)perfluorooctanesulfonamide] yielded a POD vs vehicle of over 100 µM.

`NC(=O)C(F)(F)C(F)(F)C(F)(F)C(F)(F)C(N)=O` [Octafluoroadipamide]: the POD vs vehicle was over 100 µM.

For the molecule `O=C(O)C(F)(F)C(F)(F)C(F)(F)OC(F)(F)F` [Perfluoro(4-methoxybutanoic)_acid], the POD vs vehicle was over 100 µM.

`O=C(O)C(F)(F)C(F)(F)OC(F)(F)F` [Perfluoro-3-methoxypropanoic_acid] yielded a POD vs vehicle of over 100 µM.

As for `O=C(O)C(F)(F)C(F)(F)C(F)(F)F` [Perfluorobutanoic_acid], the POD vs vehicle is over 100 µM.

`O=C(O)C(F)(F)C(F)(F)C(F)(F)C(F)(F)C(F)(F)C(F)(F)C(F)(F)C(F)(F)C(F)(F)F` [Perfluorodecanoic_acid] showed a POD vs vehicle of over 100 µM.

Turning to `NS(=O)(=O)C(F)(F)C(F)(F)C(F)(F)C(F)(F)C(F)(F)C(F)(F)F` [Perfluorohexanesulfonamide], the POD vs vehicle is over 100 µM.

`O=S(=O)(O)C(F)(F)C(F)(F)C(F)(F)C(F)(F)C(F)(F)C(F)(F)F` [Perfluorohexanesulfonic_acid] came in with a POD vs vehicle of over 100 µM.

For the molecule `O=C(O)C(F)(F)C(F)(F)C(F)(F)C(F)(F)C(F)(F)F` [Perfluorohexanoic_acid], the POD vs vehicle was over 100 µM.
